The values that follow come from patent publication US6013649A, “Thiol sulfone metalloprotease inhibitors” (Monsanto Company, priority 1997, dated 2000).

The first experiment has as its target T1, hMMP 13 (Homo sapiens, UniProt P45452).
T1 construct: made in house
Kind of experiment: In vitro metalloprotease inhibition, fluorogenic peptide substrate (recombinant human MMP-13, APMA activated). It is filed as biochemical. As to conditions: recombinant human MMP-13, room temperature, pH 7.5, 4 μM substrate. The procedure:
(§1) Briefly, 4-aminophenylmercuric acetate (APMA) or trypsin activated MMPs were incubated with various concentrations of the inhibitor compound at room temperature for 5 minutes (0.02% 2-mercaptoethanol added to buffer for thiol compounds with 5 minutes or overnight incubation).
(§2) More specifically, recombinant human MMP-13 and MMP-1 enzymes were prepared in laboratories of the assignee. MMP-13 was expressed in baculovirus as a proenzyme, and purified first over a heparin agarose column and then over a chelating zinc chloride column. The proenzyme was activated by APMA for use in the assay. MMP-1 expressed in transfected HT-1080 cells was provided by Dr. Howard Welgus of Washington University, St. Louis, Mo. The enzyme was also activated using APMA and was then purified over a hydroxamic acid column.
(§3) The enzyme substrate is a methoxycoumarin-containing polypeptide having the following sequence:
(§4) MCA-ProLeuGlyLeuDpaAlaArgNH^2, wherein MCA is methoxycoumarin and Dpa is 3-(2,4--dinitrophenyl)-L-2,3-diaminopropionyl alanine.
(§5) Assays were carried out at room temperature, and dimethyl sulfoxide (DMSO) at a final concentration of 1 percent was used to dissolve inhibitor compound.
(§6) The assayed inhibitor compound in DMSO/buffer solution was compared to an equal amount of DMSO/buffer with no inhibitor as control using Microfluor™ White Plates (Dynatech). The inhibitor or control solution was maintained in the plate for 10 minutes and the substrate was added to provide a final concentration of 4 μM.
(§7) Inhibition was measured as a reduction in fluorescent intensity as a function of inhibitor concentration, using a Perkin Elmer L550 plate reader. The IC50 values were calculated from those values.
As for `COc1ccc(S(=O)(=O)C(C)CCS)cc1` (stereo not shown) [Example 19, 3-[(4-methoxyphenyl)sulfonyl]-butane-1-thiol], the IC50 – broadly, the concentration at which inhibition is half-maximal – amounted to 200 nM.
Still for that read-out and setting: under `CCCC(CCS)S(=O)(=O)c1ccc(OC)cc1` (stereo not shown) [Example 20, 3-[(4-methoxyphenyl)sulfonyl]hexane-1-thiol] stands 7 nM; under `CCCCCC(CCS)S(=O)(=O)c1ccc(OC)cc1` (stereo not shown) [Example 22, 3-[(4-methoxyphenyl)sulfonyl]-octane-1-thiol], 0.5 nM; under `COc1ccc(S(=O)(=O)CCC(S)c2ccccc2)cc1` (stereo not shown) [Example 24, 3-[(4-methoxyphenyl)sulfonyl]-1-phenylpropane-1-thiol], 48 nM.
On the same count and under the same terms, in the case of `COc1ccc(S(=O)(=O)CCCCS)cc1` [Example 25, 4-[(4--methoxyphenyl)sulfonyl]butane-1-thiol] it was 700 nM; in that of `CCCCOc1ccc(S(=O)(=O)CCCS)cc1` [Example 27, 3-[(4-butoxyphenyl)sulfonyl]propane-1-thiol], 40 nM.
The same measure, in the same setting: under `CCCCOc1ccc(S(=O)(=O)C(CCS)Cc2ccccc2)cc1` (stereo not shown) [Example 28, 3-[(4-butoxyphenyl)sulfonyl]-4-phenylbutane-1-thiol] stands 1.5 nM; under `CCCOc1ccc(S(=O)(=O)CCCS)cc1` [Example 29, 3-[(4-propoxyphenyl)sulfonyl]propanethiol], 55 nM.
For the compound `O=S(=O)(CCCS)c1ccccc1` [Example 30, 3-(phenylsulfonyl)propane-1-thiol], the half-maximal inhibitory concentration (IC50) was found to be 900 nM.
As for `CNC(=O)CC(CCS)S(=O)(=O)c1ccc(OC)cc1` (stereo not shown) [Example 31], the IC50 came to 35 nM.
On the same count and under the same terms, in the case of `COc1ccc(S(=O)(=O)CC(CS)NC(C)=O)cc1` (stereo not shown) [Example 32, N-[1-(mercaptomethyl)-2-[(4-methoxyphenyl)sulfonyl)ethyl)acetamide] it was 70 nM; in that of `COc1ccc(S(=O)(=O)CCS)cc1` [Example 34, 1-[(4-methoxyphenyl)sulfonyl]ethane-2-thiol], 200 nM; in that of `O=S(=O)(CCCS)c1ccc(Oc2ccccc2)cc1` [Example 36, 3-[(4-phenoxy)phenylsulfonyl]propane-1-thiol], 0.6 nM.
With `O=S(=O)(CCCS)c1ccc(-c2ccccc2)cc1` [Example 37, 3-[(4-phenyl)phenylsulfonyl]propane-1-thiol], the half-maximal inhibitory concentration (IC50) amounted to 170 nM.
Same read-out and setting: under `O=C(NCCN1CCOCC1)C(S)CCS(=O)(=O)c1ccc(Oc2ccccc2)cc1` (stereo not shown) [Example 39] stands 0.2 nM.

Another experiment deals with neovascularization of the corneal stroma. Kind of experiment: In vivo angiogenesis assay (corneal micropocket assay, bFGF pellet). The arrangement: species or system mouse (C57Bl/6 female). Conditions: 50 mg/kg bid, po, day five, mouse cornea. The procedure: The study of angiogenesis depends on a reliable and reproducible model for the stimulation and inhibition of a neovascular response. The corneal micropocket assay provides such a model of angiogenesis in the cornea of a mouse. See, A Model of Angiogenesis in the Mouse Cornea; Kenyon, BM, et al., Investigative Ophthalmology & Visual Science, July 1996, Vol. 37, No. 8.
In this assay, uniformly sized Hydron™ pellets containing bFGF and sucralfate were prepared and surgically implanted into the stroma mouse cornea adjacent to the temporal limbus. […]
Mice were dosed on a daily basis for the duration of the assay. […] At day five, the degree of angiogenic inhibition was scored by viewing the neovascular progression with a slit lamp microscope.
The mice were anesthetized and the studied eye was once again proptosed. The maximum vessel length of neovascularization, extending from the limbal vascular plexus toward the pellet was measured. In addition, the contiguous circumferential zone of neovascularization was measured as clock hours, where 30 degrees of arc equals one clock hour. The area of angiogenesis was calculated as follows. […]
The studied mice were thereafter compared to control mice and the difference in the area of neovascularization was recorded.
Regarding `O=C(NCCN1CCOCC1)C(S)CCS(=O)(=O)c1ccc(Oc2ccccc2)cc1` (stereo not shown) [Example 39], the “inhibition (difference in area of neovascularization vs control mice)” value came to 51%.

The next experiment deals with T2, hMMP 1 (Homo sapiens, UniProt P03956).
T2 construct: host or cells: transfected HT-1080 cells
T2 sequence (P03956 100-469): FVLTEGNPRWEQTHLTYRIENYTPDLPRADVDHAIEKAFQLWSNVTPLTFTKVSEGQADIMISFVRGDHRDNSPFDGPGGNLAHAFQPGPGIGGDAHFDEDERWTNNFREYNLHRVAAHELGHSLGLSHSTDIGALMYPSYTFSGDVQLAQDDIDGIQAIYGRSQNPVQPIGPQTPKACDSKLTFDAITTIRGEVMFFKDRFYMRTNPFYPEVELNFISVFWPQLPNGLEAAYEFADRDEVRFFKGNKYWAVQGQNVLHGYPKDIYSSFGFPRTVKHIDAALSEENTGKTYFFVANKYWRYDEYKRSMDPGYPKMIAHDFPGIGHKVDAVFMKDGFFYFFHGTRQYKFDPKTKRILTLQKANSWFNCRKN
Kind of experiment: In vitro metalloprotease inhibition, fluorogenic peptide substrate (recombinant human MMP-1, APMA activated). It is filed as biochemical. As to conditions: human MMP-1, room temperature, pH 7.5, 4 μM substrate. The procedure: as §1, §2, §3, §4, §5, §6, §7
Consider `COc1ccc(S(=O)(=O)C(C)CCS)cc1` (stereo not shown) [Example 19, 3-[(4-methoxyphenyl)sulfonyl]-butane-1-thiol], for which the half-maximal inhibitory concentration (IC50) was found to be 7000 nM.
On the same count and under the same terms, under `CCCC(CCS)S(=O)(=O)c1ccc(OC)cc1` (stereo not shown) [Example 20, 3-[(4-methoxyphenyl)sulfonyl]hexane-1-thiol] stands 1500 nM; under `CCCCCC(CCS)S(=O)(=O)c1ccc(OC)cc1` (stereo not shown) [Example 22, 3-[(4-methoxyphenyl)sulfonyl]-octane-1-thiol], 1100 nM; under `COc1ccc(S(=O)(=O)CCC(S)c2ccccc2)cc1` (stereo not shown) [Example 24, 3-[(4-methoxyphenyl)sulfonyl]-1-phenylpropane-1-thiol], 3500 nM.
Turning to `COc1ccc(S(=O)(=O)CCCCS)cc1` [Example 25, 4-[(4--methoxyphenyl)sulfonyl]butane-1-thiol], the half-maximal inhibitory concentration (IC50) is over 10000 nM.
Consider `CCCCOc1ccc(S(=O)(=O)CCCS)cc1` [Example 27, 3-[(4-butoxyphenyl)sulfonyl]propane-1-thiol], for which the IC50 is over 10000 nM.
On the same count and under the same terms, under `CCCCOc1ccc(S(=O)(=O)C(CCS)Cc2ccccc2)cc1` (stereo not shown) [Example 28, 3-[(4-butoxyphenyl)sulfonyl]-4-phenylbutane-1-thiol] stands 9000 nM; under `CCCOc1ccc(S(=O)(=O)CCCS)cc1` [Example 29, 3-[(4-propoxyphenyl)sulfonyl]propanethiol], 10000 nM; under `O=S(=O)(CCCS)c1ccccc1` [Example 30, 3-(phenylsulfonyl)propane-1-thiol], over 10000 nM.
For the compound `CNC(=O)CC(CCS)S(=O)(=O)c1ccc(OC)cc1` (stereo not shown) [Example 31], the IC50 turned out to be 4750 nM.
Still for that read-out and setting: under `COc1ccc(S(=O)(=O)CC(CS)NC(C)=O)cc1` (stereo not shown) [Example 32, N-[1-(mercaptomethyl)-2-[(4-methoxyphenyl)sulfonyl)ethyl)acetamide] stands 4000 nM.
Still for that read-out and setting: under `COc1ccc(S(=O)(=O)CCS)cc1` [Example 34, 1-[(4-methoxyphenyl)sulfonyl]ethane-2-thiol] stands 8000 nM; under `O=S(=O)(CCCS)c1ccc(Oc2ccccc2)cc1` [Example 36, 3-[(4-phenoxy)phenylsulfonyl]propane-1-thiol], 2400 nM.
The same measure, in the same setting: under `O=S(=O)(CCCS)c1ccc(-c2ccccc2)cc1` [Example 37, 3-[(4-phenyl)phenylsulfonyl]propane-1-thiol] stands over 10000 nM; under `O=C(NCCN1CCOCC1)C(S)CCS(=O)(=O)c1ccc(Oc2ccccc2)cc1` (stereo not shown) [Example 39], 370 nM.
